Assay results taken from patent US9409907B2, “Inhibitor compounds” (Cancer Research Technology Limited, priority 2012, dated 2016).

target: full length MPS1 (Homo sapiens (Human), UniProt P33981); assay: Measurement of inhibition of MPS1 kinase (Caliper EZ reader mobility-shift enzyme assay); assay type: biochemical; settings: full length MPS1 12.5 nM or 3 nM, H236 peptide 5 μM, ATP 10 μM, 60 min at room temperature
Protocol: Measurement of Inhibition of MPS1 Kinase
The reaction was carried out for 60 min at room temperature and stopped by the addition of buffer (10 μl) containing 20 mM EDTA, 0.05% (v/v) Brij-35, in 0.1M HEPES-buffered saline (Free acid, Sigma, UK). The plate was read on a Caliper EZ reader II (Caliper Life Sciences).
The % inhibition of the compounds is calculated relative to the means of selected control wells.

Chain of full length MPS1 (P33981 whole entry): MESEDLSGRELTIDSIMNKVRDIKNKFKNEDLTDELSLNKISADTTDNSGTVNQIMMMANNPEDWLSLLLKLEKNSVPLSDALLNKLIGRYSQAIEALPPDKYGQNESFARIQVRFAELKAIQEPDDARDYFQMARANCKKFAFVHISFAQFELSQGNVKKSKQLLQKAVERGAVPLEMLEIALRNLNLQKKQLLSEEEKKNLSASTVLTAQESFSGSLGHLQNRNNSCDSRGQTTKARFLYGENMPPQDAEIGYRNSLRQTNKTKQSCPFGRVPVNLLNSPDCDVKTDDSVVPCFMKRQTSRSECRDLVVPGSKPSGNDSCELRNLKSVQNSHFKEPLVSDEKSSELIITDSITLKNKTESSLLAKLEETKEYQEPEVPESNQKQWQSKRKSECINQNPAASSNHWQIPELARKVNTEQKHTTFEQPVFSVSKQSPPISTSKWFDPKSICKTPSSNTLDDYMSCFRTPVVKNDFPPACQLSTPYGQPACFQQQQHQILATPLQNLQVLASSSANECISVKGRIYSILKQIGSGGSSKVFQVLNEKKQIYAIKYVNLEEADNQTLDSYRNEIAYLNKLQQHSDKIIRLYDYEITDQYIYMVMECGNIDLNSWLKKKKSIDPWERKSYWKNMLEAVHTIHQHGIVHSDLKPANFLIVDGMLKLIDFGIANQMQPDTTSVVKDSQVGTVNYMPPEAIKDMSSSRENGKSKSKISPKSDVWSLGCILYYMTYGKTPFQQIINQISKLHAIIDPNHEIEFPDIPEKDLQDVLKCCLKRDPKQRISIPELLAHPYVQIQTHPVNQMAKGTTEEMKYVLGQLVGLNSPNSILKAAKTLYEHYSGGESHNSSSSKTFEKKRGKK

Row | IC50 [µM] | Structure (SMILES)
1 | 0.03 | COc1cc(C(=O)N2CC(OC)C2)ccc1Nc1cc2c(-c3cccnc3)cccc2cn1 [Example 21, (3-Methoxy-4-((5-(pyridin-3-yl)isoquinolin-3-yl)amino)phenyl)(3-methoxyazetidin-1-yl)methanone]
2 | 0.1 | COC1CN(C(=O)c2ccc(Nc3cc4c(-c5cnn(C)c5)cccc4cn3)c(Cl)c2)C1 [Example 22]
3 | 0.225 | Cn1cc(-c2ccc(Nc3cc4c(-c5cnn(C)c5)cccc4cn3)c(Cl)c2)cn1 [Example 23]
4 | 0.02 | COc1cc(C(=O)N2CC(OC)C2)ccc1Nc1cc2c(-c3cnn(C)c3)cccc2cn1 [Example 24]
5 | 0.028 | COc1cc(C(=O)N(C)C)ccc1Nc1cc2c(-c3cnn(C)c3)cccc2cn1 [Example 25]
6 | 0.078 | CN(C)C(=O)c1ccc(Nc2cc3c(-c4cnn(C)c4)cccc3cn2)c(Cl)c1 [Example 26]
7 | 0.017 | COc1cc(OC2CCN(C)CC2)ccc1Nc1cc2c(-c3cnn(C)c3)cccc2cn1 [Example 29, N-(2-Methoxy-4-((1-methylpiperidin-4-yl)oxy)phenyl)-5-(1-methyl-1H-pyrazol-4-yl)isoquinolin-3-amine]
8 | 0.1 | COc1cc(-c2cnn(C)c2)c(C)cc1Nc1ncc2ccnc(-c3cnn(C)c3)c2n1 [Example 36]
9 | 0.007 | COc1cc(-c2cnn(C)c2)ccc1Nc1ncc2ccnc(NC3CCCC3)c2n1 [Example 39]
10 | 0.004 | COc1cc(-c2cnc(C)n2C)ccc1Nc1ncc2ccnc(-c3cnn(C)c3)c2n1 [Example 40, N-(4-(1,2-dimethyl-1H-imidazol-5-yl)-2-methoxyphenyl)-8-(1-methyl-1H-pyrazol-4-yl)pyrido[3,4-d]pyrimidin-2-amine]
11 | 0.003 | COc1cc(-c2cnn(CCN3CCN(C)CC3)c2)ccc1Nc1ncc2ccnc(NC3CCCCC3)c2n1 [Example 41, N^8-cyclohexyl-N2-(2-methoxy-4-(1-(2-(4-methylpiperazin-1-yl)ethyl)-1H-pyrazol-4-yl)phenyl)pyrido[3,4-d]pyrimidine-2,8-diamine]
12 | 0.014 | COc1cc(-c2cnn(CCO)c2)ccc1Nc1ncc2ccnc(NC3CCCCC3)c2n1 [Example 43, 2-(4-(4-((8-(cyclohexylamino)pyrido[3,4-d]pyrimidin-2-yl)amino)-3-methoxyphenyl)-1H-pyrazol-1-yl)ethanol]
13 | 0.003 | COc1cc(-c2cnn(CCO)c2)ccc1Nc1ncc2ccnc(NC3CCOCC3)c2n1 [Example 44, 2-(4-(3-methoxy-4-((8-((tetrahydro-2H-pyran-4-yl)amino)pyrido[3,4-d]pyrimidin-2-yl)amino)phenyl)-1H-pyrazol-1-yl)ethanol]
14 | 0.013 | COc1nc(N2CCOCC2)ccc1Nc1ncc2ccnc(NCC(C)(C)C)c2n1 [Example 45, N^2-(2-methoxy-6-morpholinopyridin-3-yl)-N8-neopentylpyrido[3,4-d]pyrimidine-2,8-diamine]
15 | 0.017 | COc1nc(S(C)(=O)=O)ccc1Nc1ncc2ccnc(NCC(C)(C)C)c2n1 [Example 46, N2-(2-methoxy-6-(methylsulfonyl)pyridin-3-yl)-N8-neopentylpyrido[3,4-d]pyrimidine-2,8-diamine]
16 | 0.002 | COc1cc(-c2cncn2C)ccc1Nc1ncc2ccnc(NCC(C)(C)C)c2n1 [Example 47, N2-(2-methoxy-4-(1-methyl-1H-imidazol-5-yl)phenyl)-N8-neopentylpyrido[3,4-d]pyrimidine-2,8-diamine]
17 | 0.029 | COc1cc(-c2cnn(C)c2)ccc1Nc1ncc2cc(C)nc(NCC(C)(C)C)c2n1 [Example 51, N^2-(2-methoxy-4-(1-methyl-1H-pyrazol-4-yl)phenyl)-6-methyl-N8-neopentylpyrido[3,4-d]pyrimidine-2,8-diamine]
18 | 0.008 | COc1cc(N2CCOCC2)ccc1Nc1ncc2ccnc(NCC(C)(C)C)c2n1 [Example 52, N2-(2-methoxy-4-morpholinophenyl)-N8-neopentyprido[3,4-d]pyrimidine-2,8-diamine]
19 | 0.01 | COc1cc(-c2cnn(C)c2)ccc1Nc1ncc2ccnc(N3CCC(C)C3)c2n1 (stereo not drawn) [Example 56, N-(2-methoxy-4-(1-methyl-1H-pyrazol-4-yl)phenyl)-8-(3-methylpyrrolidin-1-yl)pyrido[3,4-d]pyrimidin-2-amine]

Row | IC50 [µM] | Structure (SMILES)
20 | 0.012 | COc1cc(-c2cnn(C)c2)ccc1Nc1ncc2ccnc(N3CCC(F)(F)C3)c2n1 [Example 57, 8-(3,3-difluoropyrroldin-1-yl)-N-(2-methoxy-4-(1-methyl-1H-pyrazol-4-yl)phenyl)pyrido[3,4-d]pyrimidin-2-amine]
21 | 0.045 | COc1cc(-c2cnn(C)c2)ccc1Nc1ncc2ccnc(N(C)C3CCCC3)c2n1 [Example 59, N8-cyclopentyl-N2-(2-methoxy-4-(1-methyl-1H-pyrazol-4-yl)phenyl)-N8-methylpyrido[3,4-d]pyrimidine-2,8-diamine]
22 | 0.021 | COc1cc(-c2cnn(C)c2)ccc1Nc1ncc2ccnc(NCCC(C)C)c2n1 [Example 60, N8-isopentyl-N2-(2-methoxy-4-(1-methyl-1H-pyrazol-4-yl)phenyl)pyrido[3,4-d]pyrimidine-2,8-diamine]
23 | 0.003 | COc1cc(-c2cnn(C)c2)ccc1Nc1ncc2ccnc(N3CCOCC3)c2n1 [Example 61, N-(2-methoxy-4-(1-methyl-1H-pyrazol-4-yl)phenyl)-8-morpholinopyrido[3,4-d]pyrimidin-2-amine]
24 | 0.009 | COc1cc(-c2cnn(C)c2)ccc1Nc1ncc2ccnc(N3CCN(C)CC3)c2n1 [Example 62, N-(2-methoxy-4-(1-methyl-1H-pyrazol-4-yl)phenyl)-8-(4-methylpiperazin-1-yl)pyrido[3,4-d]pyrimidin-2-amine]
25 | 0.008 | COc1cc(-c2cnn(C)c2)ccc1Nc1ncc2ccnc(N3CCC4(CCC4)C3)c2n1 [Example 66, N-(2-methoxy-4-(1-methyl-1H-pyrazol-4-yl)phenyl)-8-(6-azaspiro[3.4]octan-6-yl)pyrido[3,4-d]pyrimidin-2-amine]
26 | 0.01 | COc1cc(-c2cnn(C)c2)ccc1Nc1ncc2ccnc(N3CC(OC)C3)c2n1 [Example 67, N-(2-methoxy-4-(1-methyl-1H-pyrazol-4-yl)phenyl)-8-(3-methoxyazetidin-1-yl)pyrido[3,4-d]pyrimidin-2-amine]
27 | 0.003 | COc1cc(-c2cnn(C)c2)ccc1Nc1ncc2ccnc(NC3CCOCC3)c2n1 [Example 69, N2-(2-methoxy-4-(1-methyl-1H-pyrazol-4-yl)phenyl)-N8-(tetrahydro-2H-pyran-4-yl)pyrido[3,4-d]pyrimidine-2,8-diamine]
28 | 0.006 | COc1cc(-c2cnn(C)c2)ccc1Nc1ncc2ccnc(NCC(C)(C)O)c2n1 [Example 71, 1-((2-((2-methoxy-4-(1-methyl-1H-pyrazol-4-yl)phenyl)amino)pyrido[3,4-d]pyrimidin-8-yl)amino)-2-methylpropan-2-ol]
29 | 0.005 | COc1cc(-c2cnn(C)c2)ccc1Nc1ncc2ccnc(NCC3COC3)c2n1 [Example 72, N2-(2-methoxy-4-(1-methyl-1H-pyrazol-4-yl)phenyl)-N8-(oxetan-3-ylmethyl)pyrido[3,4-d]pyrimidine-2,8-diamine]
30 | 0.004 | COc1cc(-c2cnn(C)c2)ccc1Nc1ncc2ccnc(NCC(C)(C)CO)c2n1 [Example 74, 3-((2-((2-methoxy-4-(1-methyl-1H-pyrazol-4-yl)phenyl)amino)pyrido[3,4-d]pyrimidin-8-yl)amino)-2,2-dimethylpropan-1-ol]
31 | 0.004 | COc1cc(-c2cnn(C)c2)ccc1Nc1ncc2ccnc(NC(C)C3CC3)c2n1 (stereo not drawn) [Example 75, N8-(1-cyclopropylethyl)-N2-(2-methoxy-4-(1-methyl-1H-pyrazol-4-yl)phenyl)pyrido[3,4-d]pyrimidine-2,8-diamine]
32 | 0.008 | COc1cc(-c2cnn(C)c2)ccc1Nc1ncc2ccnc(NC3CCOC3)c2n1 (stereo not drawn) [Example 78, N2-(2-methoxy-4-(1-methyl-1H-pyrazol-4-yl)phenyl)-N8-(tetrahydrofuran-3-yl)pyrido[3,4-d]pyrimidine-2,8-diamine]
33 | 0.005 | COc1cc(-c2cnn(C)c2)ccc1Nc1ncc2ccnc(NCC3CCOC3)c2n1 (stereo not drawn) [Example 79, N2-(2-methoxy-4-(1-methyl-1H-pyrazol-4-yl)phenyl)-N8-((tetrahydrofuran-3-yl)methyl)pyrido[3,4-d]pyrimidine-2,8-diamine]
34 | 0.006 | COc1cc(-c2cnn(C)c2)ccc1Nc1ncc2ccnc(N3CCC(O)C3)c2n1 (stereo not drawn) [Example 80, 1-(2-(2-methoxy-4-(1-methyl-1H-pyrazol-4-yl)phenylamino)pyrido[3,4-d]pyrimidin-8-yl)pyrrolidin-3-ol]
35 | 0.033 | COc1cc(-c2cnn(C)c2)ccc1Nc1ncc2ccnc(N(C)C3CCOCC3)c2n1 [Example 81, N2-(2-methoxy-4-(1-methyl-1H-pyrazol-4-yl)phenyl)-N8-methyl-N8-(tetrahydro-2H-pyran-4-yl)pyrido[3,4-d]pyrimidine-2,8-diamine]
36 | 0.025 | COc1cc(-c2cnn(C)c2)ccc1Nc1ncc2ccnc(NC(C)(C)C)c2n1 [Example 82, N8-tert-butyl-N2-(2-methoxy-4-(1-methyl-1H-pyrazol-4-yl)phenyl)pyrido[3,4-d]pyrimidine-2,8-diamine]
37 | 0.019 | COc1cc(-c2cnn(C)c2)ccc1Nc1ncc2ccnc(NC3(C)CCCCC3)c2n1 [Example 83, N2-(2-methoxy-4-(1-methyl-1H-pyrazol-4-yl)phenyl)-N8-(1-methylcyclohexyl)pyrido[3,4-d]pyrimidine-2,8-diamine]

Row | Structure (SMILES) | IC50 [µM]
38 | COc1cc(-c2cnc(C)n2C)ccc1Nc1ncc2ccnc(NCC(C)(C)C)c2n1 [Example 50, N2-(4-(1,2-dimethyl-1H-imidazol-5-yl)-2-methoxyphenyl)-N8-neopentylpyrido[3,4-d]pyrimidine-2,8-diamine] | 0.007
39 | COc1cc(-c2cnn(C)c2)ccc1Nc1ncc2ccnc(N3CC(F)(F)C3)c2n1 [Example 63, 8-(3,3-difluoroazetidin-1-yl)-N-(2-methoxy-4-(1-methyl-1H-pyrazol-4-yl)phenyl)pyrido[3,4-d]pyrimidin-2-amine] | 0.025
